The structures appear in SMILES notation. Where a name gives a salt, the structure may show the parent alone.

The target of assay [1] is T1, human serotonin transporter (Homo sapiens, UniProt P31645).
T1 construct: isolate and amplify each of the three full-length cDNAs from an appropriate cDNA library; expressed in transfected cells; host or cells: HEK293 cells, stably transfected (pcDNA3.1-type vector); membrane preparation
Briefly: [3H]-citalopram scintillation proximity binding assay (serotonin binding assay). The settings on record: read-out: Ki (SERT). An excerpt: (§1) Generation of Stable Cell-lines Expressing the Human Dopamine, Norepinephrine and Serotonin Transporters
(§2) Standard molecular cloning techniques were used to generate stable cell-lines expressing the human dopamine, norepinephrine and serotonin transporters. The polymerase chain reaction (PCR) was used in order to isolate and amplify each of the three full-length cDNAs from an appropriate cDNA library. Primers for PCR were designed using the following published sequence data:
Human serotonin transporter: GenBank L05568. Reference: Ramamoorthy S, Bauman A L, Moore K R, Han H, Yang-Feng T, Chang A S, Ganaphthy V and Blakely R D. Antidepressant- and cocaine-sensitive human serotonin transporter: Molecular cloning, expression, and chromosomal localization. Proceedings of the National Academy of Sciences of the USA (1993) volume 90, pages 2542-2546. […]
Membrane preparation is essentially similar to that for the norepinephrine transporter containing membranes as described above. […] The protein concentration of the membrane preparation was determined using a BCA protein assay reagent kit. […]
The microtitre plates were incubated at room temperature for 10 hours prior to reading in a Trilux scintillation counter. The results were analysed using an automatic spline fitting programme Multicalc, Packard, Milton Keynes, UK) to provide Ki (nM) values for each of the test compounds. […]
For orientation: Scintillation proximity formats need no separation of bound from free tracer.

In assay [2] the target is T2, human norepinephrine transporter (Homo sapiens, UniProt P23975).
T2 construct: isolate and amplify each of the three full-length cDNAs from an appropriate cDNA library; expressed in transfected cells; host or cells: HEK-293 cells, stably transfected (pcDNA3.1-type vector); membrane preparation
Put plainly: [3H]-nisoxetine scintillation proximity binding assay (norepinephrine binding assay). The settings on record: read-out: Ki (NET).
Text: as §1, §2
Human norepinephrine transporter: GenBank M65105. Reference: Pacholczyk T, Blakely, R D and Amara S G. Expression cloning of a cocaine- and antidepressant-sensitive human noradrenaline transporter. Nature (1991) volume 350, pages 350-354. […]
Cell pastes from large scale production of HEK-293 cells expressing cloned human norepinephrine transporters were homogenized in 4 volumes 50 mM Tris-HCl containing 300 mM NaCl and 5 mM KCl, pH 7.4. […] The protein concentration of the membrane preparation was determined using a bicinchoninic acid (BCA) protein assay reagent kit (available from Pierce). […]
The microtitre plates were incubated at room temperature for 10 hours prior to reading in a Trilux scintillation counter. The results were analysed using an automatic spline fitting programme (Multicalc, Packard, Milton Keynes, UK) to provide Ki values for each of the test compounds. […]

T2 sequence (P23975 whole entry): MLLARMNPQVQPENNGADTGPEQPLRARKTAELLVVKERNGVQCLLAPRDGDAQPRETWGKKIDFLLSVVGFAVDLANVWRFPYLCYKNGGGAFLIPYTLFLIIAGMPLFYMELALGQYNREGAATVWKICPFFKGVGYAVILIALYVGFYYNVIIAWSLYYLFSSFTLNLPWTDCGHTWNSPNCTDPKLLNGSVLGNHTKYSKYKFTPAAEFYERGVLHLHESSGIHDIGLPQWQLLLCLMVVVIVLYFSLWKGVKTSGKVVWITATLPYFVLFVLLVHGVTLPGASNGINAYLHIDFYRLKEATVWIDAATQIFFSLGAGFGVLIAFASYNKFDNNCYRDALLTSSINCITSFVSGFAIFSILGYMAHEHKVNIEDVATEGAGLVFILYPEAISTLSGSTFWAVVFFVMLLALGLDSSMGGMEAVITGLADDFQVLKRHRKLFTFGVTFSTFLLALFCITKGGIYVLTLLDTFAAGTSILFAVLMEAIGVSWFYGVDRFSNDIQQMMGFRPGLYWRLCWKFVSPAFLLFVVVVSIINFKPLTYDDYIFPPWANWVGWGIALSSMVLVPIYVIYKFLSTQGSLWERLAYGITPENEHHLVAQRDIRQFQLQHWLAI
T1 sequence (P31645 whole entry): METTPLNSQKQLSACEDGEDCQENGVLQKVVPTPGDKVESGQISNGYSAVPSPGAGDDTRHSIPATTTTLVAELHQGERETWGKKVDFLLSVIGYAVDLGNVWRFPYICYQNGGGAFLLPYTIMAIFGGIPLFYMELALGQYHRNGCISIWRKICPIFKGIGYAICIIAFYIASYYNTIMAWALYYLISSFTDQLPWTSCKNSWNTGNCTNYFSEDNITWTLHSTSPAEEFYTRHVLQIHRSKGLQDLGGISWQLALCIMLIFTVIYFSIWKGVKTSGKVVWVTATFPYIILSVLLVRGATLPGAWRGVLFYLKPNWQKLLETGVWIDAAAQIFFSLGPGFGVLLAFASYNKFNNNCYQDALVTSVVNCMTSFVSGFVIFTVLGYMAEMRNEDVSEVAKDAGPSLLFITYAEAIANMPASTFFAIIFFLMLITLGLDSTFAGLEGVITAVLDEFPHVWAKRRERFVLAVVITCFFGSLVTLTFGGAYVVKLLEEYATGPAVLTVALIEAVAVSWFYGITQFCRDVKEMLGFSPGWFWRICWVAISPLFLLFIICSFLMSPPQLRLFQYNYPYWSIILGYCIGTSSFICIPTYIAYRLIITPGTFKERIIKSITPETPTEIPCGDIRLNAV

Take `CNC[C@@H](O)[C@@H](Oc1ccc(F)c2ccccc12)c1cccc(F)c1` [Example 32, (1S,2R)-1-(4-Fluoro-naphthalen-1-yloxy)-1-(3-fluoro-phenyl)-3-methylamino-propan-2-ol Hydrochloride]: the results for the Ki in assay [1] and in assay [2] were 1.1 nM and 15.2 nM, respectively.
